Source: ChEMBL document CHEMBL5550171, “Poly (ADP-ribose) polymerase (PARP) inhibitors as anticancer agents: An outlook on clinical progress, synthetic strategies, biological activity, and structure-activity relationship” (Eur J Med Chem, 2024)

What was measured:
A549 [1] = assay: Antiproliferative activity against human A549 cells assessed as reduction in cell growth measured for 72 hrs by MTT assay; type: functional, cell-based; details: A549, 72 h
A549 [2] = assay: Induction of apoptosis in human A549 cells at 1 uM incubated for 48 hrs by Annexin V-FITC/PI staining based flow cytometry analysis relative to control; type: functional
A549 [3] = assay: Induction of apoptosis in human A549 cells at 2 uM incubated for 48 hrs by Annexin V-FITC/PI staining based flow cytometry analysis relative to control; type: functional
A549 [4] = assay: Induction of apoptosis in human A549 cells at 4 uM incubated for 48 hrs by Annexin V-FITC/PI staining based flow cytometry analysis relative to control; type: functional
[5] = molecular target: T1, Protein cereblon/Poly [ADP-ribose] polymerase 1 (Homo sapiens, UniProt P09874+Q96SW2); assay: PROTAC activity at CRBN/PARP1 in human MDA-MB-231 cells assessed as induction of PARP1 degradation at 0.1 uM relative to control; type: cell-based
Target sequence in this assay (P09874 2-1014 limits assumed): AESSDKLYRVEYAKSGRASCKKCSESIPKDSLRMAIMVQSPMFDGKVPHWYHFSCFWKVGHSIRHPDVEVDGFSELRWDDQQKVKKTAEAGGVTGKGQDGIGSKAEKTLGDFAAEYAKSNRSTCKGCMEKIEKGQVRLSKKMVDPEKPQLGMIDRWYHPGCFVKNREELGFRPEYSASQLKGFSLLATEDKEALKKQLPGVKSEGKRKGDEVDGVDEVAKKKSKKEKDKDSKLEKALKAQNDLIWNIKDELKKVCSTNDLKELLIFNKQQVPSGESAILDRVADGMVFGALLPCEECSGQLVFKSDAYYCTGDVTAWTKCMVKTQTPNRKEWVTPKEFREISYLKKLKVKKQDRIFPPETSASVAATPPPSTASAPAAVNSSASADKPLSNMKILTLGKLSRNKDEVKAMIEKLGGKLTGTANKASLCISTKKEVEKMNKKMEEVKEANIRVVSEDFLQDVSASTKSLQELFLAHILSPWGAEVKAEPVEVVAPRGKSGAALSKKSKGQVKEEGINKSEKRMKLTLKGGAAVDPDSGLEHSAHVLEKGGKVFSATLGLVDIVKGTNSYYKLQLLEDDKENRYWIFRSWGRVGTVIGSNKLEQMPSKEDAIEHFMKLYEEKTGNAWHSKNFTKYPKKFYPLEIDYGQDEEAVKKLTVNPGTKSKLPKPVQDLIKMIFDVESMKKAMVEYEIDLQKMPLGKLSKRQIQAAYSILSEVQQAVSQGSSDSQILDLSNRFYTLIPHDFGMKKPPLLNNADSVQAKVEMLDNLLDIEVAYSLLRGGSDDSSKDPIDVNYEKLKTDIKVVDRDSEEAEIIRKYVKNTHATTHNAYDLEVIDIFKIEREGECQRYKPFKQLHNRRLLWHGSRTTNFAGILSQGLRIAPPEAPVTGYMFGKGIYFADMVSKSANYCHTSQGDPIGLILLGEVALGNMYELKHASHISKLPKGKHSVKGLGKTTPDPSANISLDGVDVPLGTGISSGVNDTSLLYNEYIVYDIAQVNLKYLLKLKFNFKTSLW
Target sequence in this assay (Q96SW2 whole entry partner): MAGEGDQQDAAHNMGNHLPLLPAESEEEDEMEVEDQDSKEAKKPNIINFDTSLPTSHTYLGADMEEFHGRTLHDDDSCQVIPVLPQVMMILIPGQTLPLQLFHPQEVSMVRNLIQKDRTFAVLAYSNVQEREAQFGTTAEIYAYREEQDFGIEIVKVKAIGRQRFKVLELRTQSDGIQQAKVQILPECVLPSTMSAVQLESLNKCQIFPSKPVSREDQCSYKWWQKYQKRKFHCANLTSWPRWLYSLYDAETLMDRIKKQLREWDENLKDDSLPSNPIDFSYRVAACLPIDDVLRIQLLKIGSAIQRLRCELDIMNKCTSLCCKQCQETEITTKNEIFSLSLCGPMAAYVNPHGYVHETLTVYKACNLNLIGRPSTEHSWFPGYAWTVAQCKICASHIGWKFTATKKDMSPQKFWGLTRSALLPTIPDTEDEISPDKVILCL

MDA-MB-231 [6] = assay: Antiproliferative activity against human MDA-MB-231 cells assessed as reduction in cell viability at 10 uM after 24 hrs by CCK8 assay relative to control; type: functional
MDA-MB-231 [7] = assay: Antiproliferative activity against human MDA-MB-231 cells assessed as reduction in cell viability at 1 uM after 24 hrs by CCK8 assay relative to control; type: functional
[8] = molecular target: T1, Protein cereblon/Poly [ADP-ribose] polymerase 1; assay: PROTAC activity at CRBN/PARP1 in human MDA-MB-231 cells assessed as […]; type: cell-based
Target sequence in this assay (P09874 whole entry): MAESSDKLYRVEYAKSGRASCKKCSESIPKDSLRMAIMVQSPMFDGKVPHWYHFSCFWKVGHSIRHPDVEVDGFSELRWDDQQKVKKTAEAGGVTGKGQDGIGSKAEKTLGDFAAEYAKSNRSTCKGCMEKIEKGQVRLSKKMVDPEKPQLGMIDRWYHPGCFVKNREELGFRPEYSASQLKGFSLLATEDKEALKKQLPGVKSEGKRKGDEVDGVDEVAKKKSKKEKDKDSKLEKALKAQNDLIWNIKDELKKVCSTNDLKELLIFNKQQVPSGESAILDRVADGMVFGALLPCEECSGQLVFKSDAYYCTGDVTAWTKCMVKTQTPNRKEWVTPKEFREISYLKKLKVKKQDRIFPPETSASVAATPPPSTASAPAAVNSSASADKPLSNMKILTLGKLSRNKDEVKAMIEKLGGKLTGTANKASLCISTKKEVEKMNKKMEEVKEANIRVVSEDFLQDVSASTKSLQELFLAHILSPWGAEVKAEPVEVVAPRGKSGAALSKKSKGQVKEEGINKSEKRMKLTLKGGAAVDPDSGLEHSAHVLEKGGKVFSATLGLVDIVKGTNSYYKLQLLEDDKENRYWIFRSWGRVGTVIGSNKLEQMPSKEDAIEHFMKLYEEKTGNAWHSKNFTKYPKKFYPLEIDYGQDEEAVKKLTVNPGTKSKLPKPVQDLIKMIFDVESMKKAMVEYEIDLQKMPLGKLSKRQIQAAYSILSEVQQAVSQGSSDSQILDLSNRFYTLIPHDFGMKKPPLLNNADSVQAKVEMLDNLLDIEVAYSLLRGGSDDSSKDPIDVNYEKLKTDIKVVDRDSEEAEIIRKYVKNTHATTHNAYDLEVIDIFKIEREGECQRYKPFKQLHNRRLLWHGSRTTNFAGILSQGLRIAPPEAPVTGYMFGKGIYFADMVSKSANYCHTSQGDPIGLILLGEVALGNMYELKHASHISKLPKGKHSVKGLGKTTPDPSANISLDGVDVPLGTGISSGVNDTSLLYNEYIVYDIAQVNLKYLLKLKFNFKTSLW
Target sequence in this assay (Q96SW2 whole entry): as the sequence (Q96SW2 whole entry partner) above

MDA-MB-231 [9] = assay: Antiproliferative activity against human MDA-MB-231 cells assessed as reduction in cell viability after 24 hrs by CCK8 assay; type: functional, cell-based; details: MDA-MB-231, 24 h
MDA-MB-231 [10] = assay: Antitumor activity against human MDA-MB-231 cells xenografted in mouse assessed as tumor growth inhibition at 40 mg/kg, po relative to control; type: functional; details: read-out: TGI

Row | IC50 (A549 [1]) [nM] | Activity [5] [%] | DC50 [8] [nM] | IC50 (MDA-MB-231 [9]) [nM] | Compound | Activity (A549 [2]) [%] | Activity (A549 [3]) [%] | Activity (A549 [4]) [%] | Activity (MDA-MB-231 [6]) [%] | Activity (MDA-MB-231 [7]) [%] | inhibition in vivo at 40 mg/kg (MDA-MB-231 [10]) [%]
1 | 1950 |  |  |  | O=C1CCN(Cc2cn(-c3ccccc3F)nn2)C2(CCCCC2)c2ccccc21 | 8 | 10.9 | 19 |  |  | 
2 |  | 88 | 25.2 | 1040 | NC(=O)c1cccc2cn(-c3ccc(C4CCCN(CCC5CCN(CCC6CCN(c7ccc8c(c7)C(=O)N(C7CCC(=O)NC7=O)C8=O)CC6)CC5)C4)cc3)nc12 (stereo not given) |  |  |  | 11.78 | 65.84 | 71.4
